Literature values, collected in paper PMC10544575, “Inhibitory mechanism of vortioxetine on CYP450 enzymes in human and rat liver microsomes” (Frontiers in Pharmacology, 2023).

Experiments:
Conditions in all cases: in vitro; ref Wójcikowski et al., 2020; cited from earlier work
[1] = test system: CYP1A2; parameters: method as in Wójcikowski et al., 2020
[2] = molecular target: CYP2D6 (Homo sapiens, UniProt P10635); parameters: 0.20 mg/mL HLMs or 0.20 mg/mL RLMs; from tissue; host or cells: human liver microsomes; method as in Wójcikowski et al., 2020
CYP2D6, sequence (P10635 whole entry): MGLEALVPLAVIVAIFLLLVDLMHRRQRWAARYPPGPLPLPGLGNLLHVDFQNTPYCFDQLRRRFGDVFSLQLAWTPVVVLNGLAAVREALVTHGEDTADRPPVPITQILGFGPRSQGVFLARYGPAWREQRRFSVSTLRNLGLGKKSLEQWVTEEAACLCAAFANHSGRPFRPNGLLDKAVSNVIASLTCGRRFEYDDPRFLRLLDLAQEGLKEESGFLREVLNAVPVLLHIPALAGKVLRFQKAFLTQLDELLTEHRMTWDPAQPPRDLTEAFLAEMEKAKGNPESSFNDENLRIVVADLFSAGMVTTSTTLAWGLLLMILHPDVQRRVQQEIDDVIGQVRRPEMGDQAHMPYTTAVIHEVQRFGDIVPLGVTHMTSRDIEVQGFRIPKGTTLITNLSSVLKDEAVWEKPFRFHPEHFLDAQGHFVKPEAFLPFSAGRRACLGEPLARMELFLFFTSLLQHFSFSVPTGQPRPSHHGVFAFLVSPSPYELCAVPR

[3] = molecular target: CYP3A4 (Homo sapiens, UniProt P08684); parameters: 0.20 mg/mL HLMs or 0.20 mg/mL RLMs; from tissue; host or cells: human liver microsomes; method as in Wójcikowski et al., 2020
CYP3A4, sequence (P08684 whole entry): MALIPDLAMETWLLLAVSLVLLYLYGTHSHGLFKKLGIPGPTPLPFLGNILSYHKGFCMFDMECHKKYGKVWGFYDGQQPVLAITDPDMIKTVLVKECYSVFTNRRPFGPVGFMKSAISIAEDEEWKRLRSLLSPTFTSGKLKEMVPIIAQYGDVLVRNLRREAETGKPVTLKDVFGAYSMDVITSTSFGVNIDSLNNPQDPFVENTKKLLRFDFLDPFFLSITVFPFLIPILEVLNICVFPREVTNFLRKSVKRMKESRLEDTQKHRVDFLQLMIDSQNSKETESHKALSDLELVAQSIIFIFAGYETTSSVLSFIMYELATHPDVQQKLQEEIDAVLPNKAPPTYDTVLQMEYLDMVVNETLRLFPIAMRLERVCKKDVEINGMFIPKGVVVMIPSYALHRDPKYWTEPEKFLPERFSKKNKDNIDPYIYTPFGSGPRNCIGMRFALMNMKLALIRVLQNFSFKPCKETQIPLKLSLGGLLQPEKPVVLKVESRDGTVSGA

CN1CC2c3ccccc3Oc3ccc(Cl)cc3C2C1 (stereo not drawn) [asenapine]
significantly inhibited: inhibition of CYP1A2 [1] | inhibition of CYP2D6 [2] | inhibition of CYP3A4 [3]
